Measured values as given in patent publication US20120121691A1, “Method for Increasing the Production of a Specific ACYL-Chain Dihydroceramide(s) for Improving the Effectiveness of Cancer Treatments” (priority 2010, published 2012).

Legend:
[1] = test system: intracellular sphingolipids, CCRF-CEM cells; assay: LC/MS/MS analysis of intracellular sphingolipids, CCRF-CEM; format: cell-based, human; details: for increase in corresponding dihydroceramide over sphinganine plus GT-11 alone: fatty acid in addition to sphinganine plus GT-11, six hours, P<0.05
Description: LC/MS/MS analysis of intracellular sphingolipids. Sphingolipids were separated using an Agilent 1200 HPLC (LC) and determined by ESI/MS/MS performed on a AB SCIEX 4000 QTRAP Hybrid Triple Quadrupole/Linear Ion Trap mass spectrometer (MS), operating in a multiple reaction monitoring positive ionization mode as described previously with moderate modifications (25). Briefly, 50 μL of a solution (1 μM) of internal sphingolipid standards (including -sphingosine, -sphinganine, -sphingosine-1-phosphate, and -ceramide) was added to each cell pellet sample. Lipids of each sample were extracted twice with 2 mL of the ethyl acetate/isopropyl alcohol/water (60:28:12; v:v) solvent system. Supernatants were transferred to glass tubes (Kimble Chase) and evaporated under air (10 PSI) at 40° C. After reconstitution in methanol (4 mL), 1 ml of each sample was separated for the determination of lipid phosphate. Remaining sample (3 mL) was dried and used for sphingolipid quantification. For ESI/MS/MS, the dried lipid sample was dissolved in mobile phase A. Samples were injected (10 μL) and separated on a Spectra C8SR, 150×3.0 mm, 3-μm particle size column using gradient-elution (mobile phase A/B, prepared as previously described).
Data acquisition, peak integration and analyte quantitation were performed using ABI/SCIEX Analyst 1.4.2 Software. Sphingolipid data were normalized to lipid phosphate as previously described (26). Briefly, samples were dried under air (10 PSI) and lipids were extracted using the method of Bligh and Dyer (27). Of importance for phosphate assay, only Kimble Chase disposable borosilicate tubes were used for minimal sample contamination. Organic phase was transferred to glass tubes and a known volume was separated to a new tube and dried at 80° C. Phosphate standards and dried samples were then heated with ashing buffer (water:10 N:70% [40:9:1]) at 160° C. overnight. Samples were then incubated with ammonium molybdate and ascorbic acid as previously described, and absorbance ([…]) was read using a SpectraMax.
CCRF-CEM cells were treated with drug/fatty acid vehicles (control), GT-11 (0.5 μM) alone, sphinganine (4 μM) alone or sphinganine (4 μM) plus GT-11 (0.5 μM) for six hours and subsequently prepared for sphingolipid analysis.
CCRF-CEM cells were treated with GT-11 (0.5 μM) alone, sphinganine (1 μM) alone or sphinganine (1 μM) plus GT-11 (0.5 μM) for six hours and prepared for quantitative analysis. DHCers were normalized to control and plotted as fold change (bar, z-axis). * indicates significance, with P<0.05. […] CCRF-CEM cells were treated with sphinganine (1 μM) plus GT-11 (0.5 μM) with and without specific solubilized fatty acids (carbon chain length (CX) and saturation (:X), Ex: C20:1=fatty acid with 20 carbons and one desaturation) for six hours and prepared for quantitative sphingolipid analysis. Dihydroceramides were normalized to control cells that received sphinganine plus GT-11 with no fatty acid and plotted as fold change (bar, z-axis). * indicates significance, with P<0.05.

CCRF-CEM = test system: CCRF-CEM
Description: Statistical analyses. Descriptive statistics and significance testing were performed using Microsoft Excel. The Excel function “t.test” was used for Student's T-testing (two-tailed, type-2). Propagated standard deviations were calculated using standard methods. Correlation analyses were performed using Sigmaplot 11 software. […]
Due to the confounding effect of in vitro fatty acid conversion, correlation analyses were used to identify significant relationships between absolute levels of specific sphingolipids and cytotoxicity. […]

MOLT-4 = format: cell-based, human
Description: (§1) Statistical analyses. […] Propagated standard deviations were calculated using standard methods. Correlation analyses were performed using Sigmaplot 11 software.

COG-LL-317 = format: cell-based, human
Description: as §1

COG-LL-332 = format: cell-based, human
Description: as §1

Row | SMILES | increase of total ceramide ([1]; sphinganine 4 μM alone, six hours, normalized to control, P<0.001) | Pearson Coef. (r), sphingolipid level vs cytotoxicity (CCRF-CEM) | Spearman Coef. (ρ), sphingolipid level vs cytotoxicity (CCRF-CEM) | increase in corresponding dihydroceramide over sphinganine plus GT-11 alone [1] | increase in C22:0-DHCer over sphinganine plus GT-11 alone ([1]; fatty acid 5 μM in addition to sphinganine 1 μM plus GT-11 0.5 μM, six hours, P<0.001) | Pearson Coef. (r), sphingolipid level vs cytotoxicity (MOLT-4) | Spearman Coef. (ρ), sphingolipid level vs cytotoxicity (MOLT-4) | Pearson Coef. (r), sphingolipid level vs cytotoxicity (COG-LL-317) | Spearman Coef. (ρ), sphingolipid level vs cytotoxicity (COG-LL-317) | Pearson Coefficient (r), sphingolipid level vs cytotoxicity (COG-LL-332) | Spearman Coefficient (ρ), sphingolipid level vs cytotoxicity (COG-LL-332)
1 | CCCCCCCCCCCCCCC[C@@H](O)[C@@H](N)CO [Sphinganine, (2S,3R)-2-aminooctadecane-1,3-diol, reference compound] | 1.5 fold | −0.21 | −0.30 | – | – | – | – | – | – | – | –
2 | CCCCCCCC/C=C\CCCCCCCCCCCCCC(=O)O [C24:1-fatty acid] | – | – | – | significant increases | – | – | – | – | – | – | –
3 | CCCCCCCCCCCCCCCC(=O)O [C16:0-fatty acid] | – | – | – | significant increases | – | – | – | – | – | – | –
4 | CCCCCCCCCCCCCCCCCCCC(=O)O [C20:0-fatty acid] | – | – | – | significant increases | 12 fold | – | – | – | – | – | –
5 | CCCCCCCC/C=C\CCCCCCCCCCCCCC(=O)N[C@@H](CO)[C@H](O)/C=C/CCCCCCCCCCCCC [C24:1-Cer] | – | −0.27 | −0.32 | – | – | −0.43 | −0.55 | −0.42 | −0.74 | −0.07 | 0.05
6 | CCCCCCCCC=CCCCCCCCC(=O)NC(CO)C(O)C=CCCCCCCCCCCCCC (centres unmarked) [C18:1-Cer] | – | 0.11 | 0.10 | – | – | −0.52 | −0.59 | −0.50 | −0.59 | −0.45 | −0.30
7 | CCCCCCCCCCCCC/C=C/[C@@H](O)[C@H](CO)NC(=O)CCCCCCCCCCCCC [C14:0-Cer] | – | 0.03 | 0.01 | – | – | −0.53 | −0.48 | −0.54 | −0.43 | −0.32 | −0.28
8 | CCCCCCCCCCCCCCCCCC(=O)N[C@@H](CO)[C@H](O)CCCCCCCCCCCCCCC [C18:0-DHCer] | – | 0.22 | 0.15 | – | – | 0.12 | 0.14 | −0.22 | −0.38 | −0.16 | −0.16
9 | CCCCCCCCCCCCCCCCCCCCCC(=O)N[C@@H](CO)[C@H](O)CCCCCCCCCCCCCCC [C22:0-DHCer] | – | 0.67 | 0.75 | – | – | 0.79 | 0.91 | 0.86 | 0.79 | 0.73 | 0.81
10 | CCCCCCCCCCCCCC(=O)O [C14:0-fatty acid] | – | – | – | significant increases | – | – | – | – | – | – | –
11 | CCCCCCCCCCCCCCCC(=O)N[C@@H](CO)[C@H](O)CCCCCCCCCCCCCCC [C16:0-DHCer] | – | 0.26 | 0.37 | – | – | 0.26 | 0.57 | 0.03 | 0 | 0.45 | 0.62
